Test results: ChEMBL document CHEMBL6127072, “PROTAC unleashed: Unveiling the synthetic approaches and potential therapeutic applications” (Eur J Med Chem, 2024)

How the values were obtained:
[1] = biological target: Protein cereblon/Leucine-rich repeat serine/threonine-protein kinase 2 (Homo sapiens, UniProt Q5S007+Q96SW2); assay: PROTAC activity at CRBN/LRRK2 in human MOLT-4 cells assessed as induction of protein .degradation incubated for 48 hrs by Western blot analysis; type: cell-based
[2] = biological target: Protein cereblon/Microtubule-associated protein tau (Homo sapiens, UniProt P10636+Q96SW2); assay: PROTAC activity at CRBN/tau in HEK293T cells measured for 48 hrs by immunoblot analysis; type: cell-based
Protein cereblon/Microtubule-associated protein tau, sequence (P10636 whole entry): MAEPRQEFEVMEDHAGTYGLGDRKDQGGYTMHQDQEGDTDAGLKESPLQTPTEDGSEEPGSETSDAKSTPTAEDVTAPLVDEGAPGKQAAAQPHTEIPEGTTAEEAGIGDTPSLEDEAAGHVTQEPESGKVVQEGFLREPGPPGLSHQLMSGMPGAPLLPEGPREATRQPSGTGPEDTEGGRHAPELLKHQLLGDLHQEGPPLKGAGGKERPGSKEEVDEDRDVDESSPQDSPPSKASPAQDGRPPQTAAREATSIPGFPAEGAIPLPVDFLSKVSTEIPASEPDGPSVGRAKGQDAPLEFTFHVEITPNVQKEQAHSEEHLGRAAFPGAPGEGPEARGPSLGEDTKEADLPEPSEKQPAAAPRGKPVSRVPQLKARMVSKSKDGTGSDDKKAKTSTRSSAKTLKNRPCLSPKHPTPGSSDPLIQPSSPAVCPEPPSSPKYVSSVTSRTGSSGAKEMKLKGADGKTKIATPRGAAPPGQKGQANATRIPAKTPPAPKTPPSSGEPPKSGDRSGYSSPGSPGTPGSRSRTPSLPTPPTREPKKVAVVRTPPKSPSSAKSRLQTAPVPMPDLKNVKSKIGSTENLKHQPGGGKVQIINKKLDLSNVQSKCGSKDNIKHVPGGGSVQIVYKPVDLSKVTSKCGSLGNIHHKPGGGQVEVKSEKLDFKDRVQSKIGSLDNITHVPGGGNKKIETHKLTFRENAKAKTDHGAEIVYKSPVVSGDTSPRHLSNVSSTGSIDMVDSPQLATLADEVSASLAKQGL
Protein cereblon/Microtubule-associated protein tau, sequence (Q96SW2 whole entry): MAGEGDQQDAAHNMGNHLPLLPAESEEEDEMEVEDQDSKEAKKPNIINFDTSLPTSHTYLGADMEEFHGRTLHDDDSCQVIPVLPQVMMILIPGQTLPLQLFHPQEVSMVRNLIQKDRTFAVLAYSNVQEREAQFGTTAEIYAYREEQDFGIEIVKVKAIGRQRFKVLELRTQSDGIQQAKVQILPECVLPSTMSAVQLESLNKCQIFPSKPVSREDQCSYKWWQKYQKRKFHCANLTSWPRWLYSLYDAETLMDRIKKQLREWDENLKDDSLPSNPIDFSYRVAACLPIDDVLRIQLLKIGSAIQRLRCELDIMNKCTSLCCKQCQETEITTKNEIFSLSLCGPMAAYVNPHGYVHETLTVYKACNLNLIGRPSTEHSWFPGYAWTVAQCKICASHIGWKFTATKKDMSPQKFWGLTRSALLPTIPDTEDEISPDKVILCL

[3] = biological target: Replicase polyprotein 1ab (Severe acute respiratory syndrome coronavirus 2, UniProt P0DTD1); assay: Inhibition of SARS CoV-2 MPro
[4] = biological target: T1, Protein cereblon/Bromodomain-containing protein 4 (Homo sapiens, UniProt O60885+Q96SW2); assay: PROTAC activity at CRBN/BRD4 in human MV4-11 cells assessed as induction of degradation of BRD4; type: cell-based
T1 sequence (Q96SW2 whole entry, looked up, other chains not shown): as the sequence (Q96SW2 whole entry) above

NS3 protease = NS3 protease (Hepacivirus C, UniProt C1KIQ2); assay: Inhibition of Hepatitis C virus NS3 protease; parameters: species or system Hepacivirus hominis
NS3 protease, sequence (C1KIQ2 whole entry): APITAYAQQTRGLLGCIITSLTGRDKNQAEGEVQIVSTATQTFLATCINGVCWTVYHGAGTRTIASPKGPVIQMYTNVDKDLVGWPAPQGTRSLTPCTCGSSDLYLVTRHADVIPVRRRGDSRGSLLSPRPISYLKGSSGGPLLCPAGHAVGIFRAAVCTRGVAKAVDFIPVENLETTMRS

[5] = biological target: T2, 3-hydroxy-3-methylglutaryl-coenzyme A reductase (Homo sapiens, UniProt P04035); assay: Inhibition of HMG-CoA Reductase (unknown origin)
T2 sequence (P04035 whole entry): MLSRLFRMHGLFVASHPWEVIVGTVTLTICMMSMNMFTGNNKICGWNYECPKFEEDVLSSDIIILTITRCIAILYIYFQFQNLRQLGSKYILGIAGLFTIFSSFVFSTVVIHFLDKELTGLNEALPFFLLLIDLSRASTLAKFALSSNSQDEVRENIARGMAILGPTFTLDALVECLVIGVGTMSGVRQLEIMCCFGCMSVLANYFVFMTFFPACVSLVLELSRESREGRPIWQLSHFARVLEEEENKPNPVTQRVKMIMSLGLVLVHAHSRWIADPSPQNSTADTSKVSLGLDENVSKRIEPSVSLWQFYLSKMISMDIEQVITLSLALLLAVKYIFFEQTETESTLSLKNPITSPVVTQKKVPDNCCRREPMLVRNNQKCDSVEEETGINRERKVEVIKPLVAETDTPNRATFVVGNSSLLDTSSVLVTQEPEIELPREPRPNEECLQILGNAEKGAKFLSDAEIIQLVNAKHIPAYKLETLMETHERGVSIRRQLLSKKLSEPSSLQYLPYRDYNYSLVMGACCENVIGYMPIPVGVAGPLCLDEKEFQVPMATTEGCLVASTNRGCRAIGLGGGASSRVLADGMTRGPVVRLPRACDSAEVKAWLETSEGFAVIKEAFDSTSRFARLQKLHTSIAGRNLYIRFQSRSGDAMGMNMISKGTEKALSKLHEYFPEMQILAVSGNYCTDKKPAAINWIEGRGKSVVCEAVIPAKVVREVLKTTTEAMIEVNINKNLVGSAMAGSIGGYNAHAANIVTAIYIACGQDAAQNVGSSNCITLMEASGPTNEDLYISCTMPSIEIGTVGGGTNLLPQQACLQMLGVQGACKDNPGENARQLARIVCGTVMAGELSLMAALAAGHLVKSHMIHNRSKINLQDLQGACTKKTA

[6] = biological target: T1, Protein cereblon/Bromodomain-containing protein 4; assay: PROTAC activity at CRBN/BRD4 in human MV4-11 cells assessed as maximal degradation at 1 uM incubated for 30 mins by Western blot analysis relative to control; type: cell-based
[7] = biological target: T1, Protein cereblon/Bromodomain-containing protein 4; assay: PROTAC activity at CRBN/BRD4 in human MV4-11 cells assessed as induction of degradation of BRD4 measured after 24 hrs by Western blot analysis; type: cell-based
[8] = biological target: T3, 3-hydroxy-3-methylglutaryl-coenzyme A reductase (Homo sapiens) (UniProt P04035); assay: Inhibition of HMG-CoA reductase (unknown origin) at 10 uM relative to control
T3 sequence (whole entry): T2 sequence (P04035 whole entry)

[9] = biological target: Protein cereblon/Androgen receptor (Homo sapiens, UniProt P10275+Q96SW2); assay: PROTAC activity at AR/CRBN in human A549 cells assessed as induction of androgen receptor degradation measured after 1 hr by Western blot analysis; type: cell-based
Protein cereblon/Androgen receptor, sequence (P10275 whole entry): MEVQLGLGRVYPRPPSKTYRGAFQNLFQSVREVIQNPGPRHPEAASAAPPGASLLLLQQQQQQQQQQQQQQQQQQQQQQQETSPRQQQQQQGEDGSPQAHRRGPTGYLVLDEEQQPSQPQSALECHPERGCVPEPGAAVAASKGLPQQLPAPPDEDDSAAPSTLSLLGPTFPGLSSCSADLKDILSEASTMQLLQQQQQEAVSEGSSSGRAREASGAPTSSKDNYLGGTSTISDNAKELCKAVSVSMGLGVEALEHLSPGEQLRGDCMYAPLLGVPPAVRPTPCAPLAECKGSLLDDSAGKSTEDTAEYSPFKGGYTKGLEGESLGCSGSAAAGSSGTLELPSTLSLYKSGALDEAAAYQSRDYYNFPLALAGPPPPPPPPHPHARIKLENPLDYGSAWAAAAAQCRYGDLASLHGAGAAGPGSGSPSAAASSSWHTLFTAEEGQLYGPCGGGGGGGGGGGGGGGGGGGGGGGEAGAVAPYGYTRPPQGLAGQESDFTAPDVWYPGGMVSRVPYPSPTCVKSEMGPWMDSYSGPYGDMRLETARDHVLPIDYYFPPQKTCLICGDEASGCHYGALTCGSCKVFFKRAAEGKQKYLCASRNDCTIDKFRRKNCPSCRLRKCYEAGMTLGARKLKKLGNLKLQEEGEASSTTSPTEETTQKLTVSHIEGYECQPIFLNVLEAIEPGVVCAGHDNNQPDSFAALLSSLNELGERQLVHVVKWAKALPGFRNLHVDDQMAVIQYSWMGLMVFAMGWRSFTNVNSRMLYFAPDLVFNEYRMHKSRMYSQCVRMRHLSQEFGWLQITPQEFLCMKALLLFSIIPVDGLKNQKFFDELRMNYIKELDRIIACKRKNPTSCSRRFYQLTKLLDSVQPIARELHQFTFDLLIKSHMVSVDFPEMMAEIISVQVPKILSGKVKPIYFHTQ
Protein cereblon/Androgen receptor, sequence (Q96SW2 whole entry): as the sequence (Q96SW2 whole entry) above

Protein cereblon/Leucine-rich repeat serine/threonine-protein kinase 2, sequence (Q5S007 whole entry): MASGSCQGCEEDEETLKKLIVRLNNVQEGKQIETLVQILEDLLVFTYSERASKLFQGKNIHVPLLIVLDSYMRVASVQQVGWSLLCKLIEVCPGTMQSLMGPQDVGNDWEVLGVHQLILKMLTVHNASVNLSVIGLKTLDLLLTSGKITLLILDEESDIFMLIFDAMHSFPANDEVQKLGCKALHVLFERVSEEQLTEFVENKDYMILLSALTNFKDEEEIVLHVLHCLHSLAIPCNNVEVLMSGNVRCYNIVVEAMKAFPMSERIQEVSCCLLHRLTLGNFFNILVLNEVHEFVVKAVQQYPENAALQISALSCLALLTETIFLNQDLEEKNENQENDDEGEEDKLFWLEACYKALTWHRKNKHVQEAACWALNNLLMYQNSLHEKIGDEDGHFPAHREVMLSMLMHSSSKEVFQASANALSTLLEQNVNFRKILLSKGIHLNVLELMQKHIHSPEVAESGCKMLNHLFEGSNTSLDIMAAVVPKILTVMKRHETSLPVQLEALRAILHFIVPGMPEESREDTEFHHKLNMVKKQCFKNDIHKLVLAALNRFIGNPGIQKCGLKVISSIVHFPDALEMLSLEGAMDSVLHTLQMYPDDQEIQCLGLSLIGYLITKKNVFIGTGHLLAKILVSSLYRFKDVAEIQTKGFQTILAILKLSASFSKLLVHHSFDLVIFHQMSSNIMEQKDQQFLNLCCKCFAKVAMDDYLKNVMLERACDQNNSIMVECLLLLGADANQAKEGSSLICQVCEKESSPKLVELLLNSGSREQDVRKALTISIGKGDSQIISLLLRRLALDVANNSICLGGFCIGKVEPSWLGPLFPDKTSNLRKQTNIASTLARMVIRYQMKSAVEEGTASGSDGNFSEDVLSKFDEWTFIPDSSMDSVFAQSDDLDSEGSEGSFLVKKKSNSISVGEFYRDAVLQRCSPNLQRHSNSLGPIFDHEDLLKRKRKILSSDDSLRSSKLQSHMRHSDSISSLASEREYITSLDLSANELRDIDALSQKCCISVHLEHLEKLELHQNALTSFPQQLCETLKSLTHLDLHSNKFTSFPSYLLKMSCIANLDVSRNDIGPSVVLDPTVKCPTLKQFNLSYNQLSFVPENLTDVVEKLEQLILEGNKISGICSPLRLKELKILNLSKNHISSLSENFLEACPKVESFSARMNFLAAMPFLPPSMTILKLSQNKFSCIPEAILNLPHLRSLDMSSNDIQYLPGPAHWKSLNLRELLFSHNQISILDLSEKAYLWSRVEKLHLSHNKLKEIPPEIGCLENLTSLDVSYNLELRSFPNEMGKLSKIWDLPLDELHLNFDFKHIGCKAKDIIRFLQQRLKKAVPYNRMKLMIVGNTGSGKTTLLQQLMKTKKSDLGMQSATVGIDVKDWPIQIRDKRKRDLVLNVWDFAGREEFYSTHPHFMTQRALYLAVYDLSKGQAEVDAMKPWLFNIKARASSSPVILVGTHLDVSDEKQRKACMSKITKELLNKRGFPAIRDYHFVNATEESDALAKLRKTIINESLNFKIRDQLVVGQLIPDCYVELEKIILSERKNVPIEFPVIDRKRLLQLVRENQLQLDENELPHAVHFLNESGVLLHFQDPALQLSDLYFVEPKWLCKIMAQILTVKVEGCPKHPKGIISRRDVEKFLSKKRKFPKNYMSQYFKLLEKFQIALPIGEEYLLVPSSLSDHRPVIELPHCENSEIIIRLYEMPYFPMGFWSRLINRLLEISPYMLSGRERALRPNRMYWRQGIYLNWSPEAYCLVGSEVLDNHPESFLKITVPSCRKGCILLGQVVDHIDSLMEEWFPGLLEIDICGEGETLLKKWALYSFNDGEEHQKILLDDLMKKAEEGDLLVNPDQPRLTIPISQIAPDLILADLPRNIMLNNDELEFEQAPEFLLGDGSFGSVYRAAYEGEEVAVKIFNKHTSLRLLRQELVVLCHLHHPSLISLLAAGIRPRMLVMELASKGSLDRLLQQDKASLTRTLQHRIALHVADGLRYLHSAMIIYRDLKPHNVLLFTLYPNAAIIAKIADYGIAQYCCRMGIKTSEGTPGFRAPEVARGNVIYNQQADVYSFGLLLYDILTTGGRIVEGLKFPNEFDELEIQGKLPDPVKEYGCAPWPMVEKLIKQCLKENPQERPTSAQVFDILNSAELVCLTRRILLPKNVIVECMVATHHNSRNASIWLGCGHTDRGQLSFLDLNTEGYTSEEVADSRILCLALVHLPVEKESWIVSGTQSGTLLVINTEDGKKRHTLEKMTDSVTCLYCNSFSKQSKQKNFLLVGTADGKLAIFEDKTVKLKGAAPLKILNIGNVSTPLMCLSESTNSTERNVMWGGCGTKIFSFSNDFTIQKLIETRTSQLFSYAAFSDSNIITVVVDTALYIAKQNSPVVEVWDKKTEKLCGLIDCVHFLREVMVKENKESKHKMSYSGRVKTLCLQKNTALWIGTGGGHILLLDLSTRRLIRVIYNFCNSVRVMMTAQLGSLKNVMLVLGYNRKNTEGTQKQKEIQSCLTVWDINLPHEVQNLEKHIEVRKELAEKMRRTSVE
Protein cereblon/Leucine-rich repeat serine/threonine-protein kinase 2, sequence (Q96SW2 whole entry): as the sequence (Q96SW2 whole entry) above

CC(C)C[C@H](CCOCCOCCOCCNc1ccc(-c2cc(-c3cccc(Br)c3)[nH]n2)cc1)NC(=O)[C@H](O)[C@@H](N)Cc1ccccc1
DC50 [1]: 5040 nM

O=C(CCc1ccc2[nH]c3ccncc3c2c1)NCCOCCCOCCNc1cccc2c1C(=O)N(C1CCC(=O)NC1=O)C2=O (stereo unspecified)
DC50 [2]: 75 nM

Cc1ncsc1-c1ccc(CNC(=O)[C@@H]2C[C@@H](O)CN2C(=O)[C@@H](NC(=O)CCOCCOCCOCCNC(=O)[C@]23CCC(C)(C)C[C@H]2[C@H]2CC[C@@H]4[C@@]5(C)CC[C@H](O)C(C)(C)[C@@H]5CC[C@@]4(C)[C@]2(C)CC3)C(C)(C)C)cc1
IC50 [3]: 1140 nM

C[C@@H](OC(C)(C)C)[C@H](NC(=O)OCc1cccc(OCCCCCOc2cccc3c2C(=O)N(C2CCC(=O)NC2=O)C3=O)c1)C(=O)N[C@H](CN[C@H](C=O)C[C@@H]1CCNC1=O)CC1CCCCC1 (stereo partly specified)
EC50 [3]: 290 nM

Cc1cc(-c2cc(NC(=O)CCC(=O)NCCOCCOCCNc3ccc4c(c3)C(=O)N(C3CCC(=O)NC3=O)C4=O)ccc2Oc2ccccc2)n2cc[nH]c(=O)c12 (stereo unspecified)
DC50 [4]: 0.75 nM

CCC[C@H](NC(=O)[C@H]1N(C(=O)[C@@H](NC(=O)[C@@H](NC(=O)c2cnc(CC(=O)NCCOCCOCCOc3cc4c5c(cccc5c3)C(=O)N(C3CCC(=O)NC3=O)C4=O)cn2)C2CCCCC2)C(C)(C)C)C[C@]2(C)CCC[C@]12C)C(=O)C(=O)NC1CC1 (stereo partly specified)
EC50 (NS3 protease): 50 nM

Cc1ncsc1-c1ccc(CNC(=O)[C@@H]2C[C@@H](O)CN2C(=O)[C@@H](NC(=O)CCCCCCCCCCNC(=O)O[C@@H]2C[C@H](C)C=C3C=C[C@@H](C)[C@@H](CC[C@@H](O)C[C@@H](C)CC(=O)O)[C@@H]32)C(C)(C)C)cc1
IC50 [5]: 120 nM

Cc1sc2c(c1C)C(c1ccc(Cl)cc1)=N[C@@H](CC(=O)NCCCCCNCCOc1ccc(C3CC(=O)NC(=O)C3)cc1)c1nnc(C)n1-2
Emax [6]: 99%
DC50 [7]: < 1 nM

Cc1ncsc1-c1ccc(CNC(=O)[C@@H]2C[C@@H](O)CN2C(=O)[C@@H](NC(=O)CCCCCCCCCCNC(=O)O[C@@H]2C[C@H](C)C=C3C=C[C@@H](C)[C@@H](CC[C@@H]4C[C@@H](O)CC(=O)O4)[C@@H]32)C(C)(C)C)cc1
inhibition [8]: 56%

CC1(C)C(=O)N(c2ccc(C#N)c(C(F)(F)F)c2)C(=O)N1c1ccc(-c2ccc(O[C@@H]3CCN(C(=O)C4CCN(c5ccc6c(c5)C(=O)N(C5CCC(=O)NC5=O)C6=O)CC4)C3)cc2)cc1 (stereo partly specified)
DC50 [9]: 75 nM
